Experiment [1] has as its system PAO1 mutant MIN1_RW01_1, pmrB(Y98N). As to the kind of experiment: MIC, MHB microdilution. Conditions: Pseudomonas aeruginosa, PAO1, read-out: MIC, MHB microdilution. In general terms: Broth dilution looks for growth in wells or tubes with falling amounts of substance.
Experiment [2] has as its system PAO1 mutant MIN2_RW01_3, parS(V152A). As to the kind of experiment: MIC, MHB microdilution. The conditions noted are these: Pseudomonas aeruginosa, PAO1, read-out: MIC, MHB microdilution.
Experiment [3] relates to PAO1 mutant MIN8_1, nalD(R3C), pilM(Q62X). The experiment can be described thus: MIC, MHB microdilution. Conditions: Pseudomonas aeruginosa, PAO1, read-out: MIC, MHB microdilution.
For experiment [4], the system named is P. aeruginosa PAO1, WT. As to the kind of experiment: MIC, MHB microdilution.
In experiment [5] the test system is PAO1 mutant MIN16_4, nalC(T50P), pilM(Q62X). The experiment can be described thus: MIC, MHB microdilution. Conditions: Pseudomonas aeruginosa, PAO1, read-out: MIC, MHB microdilution.
Experiment [6] relates to PAO1 mutant MIN32_1, mexR(R63H), pilB(N349K), PA0646(V316G). The experiment can be described thus: MIC, MHB microdilution. The conditions noted are these: Pseudomonas aeruginosa, PAO1, read-out: MIC, MHB microdilution.
Experiment [7] deals with PAO1 mutant MIN8_2, pilZ(nt18InsT). As to the kind of experiment: MIC, MHB microdilution. The conditions noted are these: Pseudomonas aeruginosa, PAO1, read-out: MIC, MHB microdilution.
Experiment [8] concerns PAO1 mutant MIN2_RW01_2, pmrB(M292T). The experiment can be described thus: MIC, MHB microdilution. The conditions noted are these: Pseudomonas aeruginosa, PAO1, read-out: MIC, MHB microdilution.
For experiment [9], the system named is PAO1 mutant MIN16_1, nalD(T43P). The experiment can be described thus: MIC, MHB microdilution. The conditions noted are these: Pseudomonas aeruginosa, PAO1, read-out: MIC, MHB microdilution.
Experiment [10] deals with 10 P. aeruginosa strains. The experiment can be described thus: MIC with and without RW01, summary over the strain collection. It counts as cell-based, Pseudomonas aeruginosa. The conditions noted are these: RW01 100 mg/L; all strains tested. The protocol:
MIC for RW01 was also tested.

SMILES strings stand for the structures. Converted amounts (≈) assume the structure as drawn.

The values below come from paper PMC11823630, “In vitro potentiation of tetracyclines in Pseudomonas aeruginosa by RW01, a new cyclic peptide” (Antimicrobial Agents and Chemotherapy, 2024).

The term MIC denotes the smallest concentration in the dilution series that meets the test's criterion for growth inhibition.

Turning to `CN(C)c1ccc(O)c2c1C[C@H]1C[C@H]3[C@H](N(C)C)C(O)=C(C(N)=O)C(=O)[C@@]3(O)C(O)=C1C2=O` [Minocycline, minocycline], the minimum inhibitory concentration (MIC) in [1] is 16 µg/mL (≈ 35 µM); in experiment [2], 16 µg/mL (≈ 35 µM); in experiment [3], 16 µg/mL (≈ 35 µM); in experiment [4] (Pseudomonas aeruginosa, PAO1, read-out: MIC, MHB microdilution), 4 to 8 µg/mL (≈ 8.74 to 17.5 µM); in experiment [5] it was 16 µg/mL (≈ 35 µM); in [6], 32 to 64 µg/mL (≈ 69.9 to 140 µM). The MIC in experiment [7] was 16 µg/mL (≈ 35 µM); in experiment [8], 16 to 32 µg/mL (≈ 35 to 69.9 µM); in experiment [9] it was 16 µg/mL (≈ 35 µM). Besides, the “MIC of MIN + RW01, MHB microdilution” value in [4] (PAO1 WT, minocycline MIC in combination with RW01, listed as MIN) was 0.5 to 1 µg/mL.
For `CN(C)c1cc(NC(=O)CNC(C)(C)C)c(O)c2c1C[C@H]1C[C@H]3[C@H](N(C)C)C(O)=C(C(N)=O)C(=O)[C@@]3(O)C(O)=C1C2=O` [Tigecycline, tigecycline], the “MIC reduction on combination with RW01 over the strains” value in experiment [10] is “four- to eightfold”.
